Results taken from patent US20240118265A1, “MATERIALS AND METHODS TO IMPROVE IN VITRO TOXICITY PREDICTIONS” (priority 2022, published 2024).
Like-named read-outs stand apart in the source and are kept apart here.

Key:
RhCE tissues = conditions: without DM test; cited from earlier work
[1] = Depth of Migration (DM) test; format: physicochemical
eye = conditions: cited from earlier work
cultured epithelium = conditions: cited from earlier work
bovine cornea = conditions: cited from earlier work
isolated chicken eye = conditions: without DM test; cited from earlier work
[2] = 1:100 dilution in DM dye solution, 30 μL, 15° platform, after 30-120 seconds, table value

DM Distance Traveled [1, 2] | Compound | in vivo GHS (eye; GHS category) | in vivo GHS (eye; rabbit, in vivo) | other results
– | CCCOCC(C)OCC(C)O (stereo not drawn) [1-(1-methyl-2-propoxyethoxy)propan-2-ol] | – | Cat. 2 | Short Time Exposure (STE) prediction versus in vivo (cultured epithelium): false negatives; DM Distance Traveled [1]: 4.5 cm
4.5 cm | CC(C)(O)CCC(C)(C)O [2,5-Dimethyl-2,5-hexanediol] | Cat. 1 | – | Short Time Exposure (STE) prediction versus in vivo (cultured epithelium; without DM test): false negatives
4.5 cm | O=C(Cl)c1c(Cl)cccc1Cl [2,6-Dichlorobenzoyl chloride] | Cat. 2 | – | Short Time Exposure (STE) prediction versus in vivo (cultured epithelium; without DM test): false negatives
– | CC(C)(C)CC(C)(C)c1ccc(O)cc1 [4-(1,1,3,3-Tetramethylbutyl)phenol] | Cat. 1 | – | DM Distance Traveled [1]: 4.5 cm; BCOP prediction versus in vivo (bovine cornea; without DM test): false negatives
4.5 cm | O=Cc1ccc(C(=O)O)cc1 [4-carboxybenzaldehyde] | Cat. 2 | – | ICE prediction versus in vivo (isolated chicken eye): false negatives
4.5 cm | C=C1C2CCC(C2)C1(C)C (stereo not drawn) [Camphene] | – | – | –
4.5 cm | CCO [Ethanol] | Cat. 2 | – | Short Time Exposure (STE) prediction versus in vivo (cultured epithelium; without DM test): false negatives
4.5 cm | CCOC(=O)CC(=O)c1cc(F)c(Cl)nc1Cl [Ethyl 2,6-dichloro-5-fluoro-beta-oxo-3-pyridine propionate] | – | Cat. 2 | BCOP prediction versus in vivo (bovine cornea): false negatives
– | C=CC(=O)OCCO [Hydroxyethyl acrylate] | – | – | DM Distance Traveled [1]: 4.5 cm
4.5 cm | CC(C)O [Isopropanol] | Cat. 2 | – | Short Time Exposure (STE) prediction versus in vivo (cultured epithelium; without DM test): false negatives
4.5 cm | N[C@@H](CC(=O)O)C(=O)O [L-Aspartic acid] | – | – | –
4.5 cm | COC(C)=O [Methyl acetate] | Cat. 2 | – | Short Time Exposure (STE) prediction versus in vivo (cultured epithelium; without DM test): false negatives
4.5 cm | COC(=O)CC#N [Methyl cyanoacetate] | Cat. 2 | – | Short Time Exposure (STE) prediction versus in vivo (cultured epithelium; without DM test): false negatives; EpiOcular prediction versus in vivo (RhCE tissues): false negatives; ICE prediction versus in vivo (isolated chicken eye): false negatives
– | C/C=C/C=C/C(=O)[O-].[K+] [Potassium sorbate] | – | Cat. 2 | Short Time Exposure (STE) prediction versus in vivo (cultured epithelium): false negatives; DM Distance Traveled [1]: 4.5 cm
– | O=C([O-])c1ccccc1O.[Na+] [Sodium salicylate] | – | Cat. 1 | Short Time Exposure (STE) prediction versus in vivo (cultured epithelium): false negatives; DM Distance Traveled [1]: 4.5 cm
– | Triton X-100 (10%) | – | – | known ocular irritancy class of the chemical (eye; reference classification): ocular corrosive

Compound | DM Distance Traveled [1, 2] | in vivo GHS (eye; GHS category) | in vivo GHS (eye; rabbit, in vivo) | other results
Cc1c(COC(=O)[C@@H]2[C@H](/C=C(\Cl)C(F)(F)F)C2(C)C)cccc1-c1ccccc1 (racemic) [Bifenthrin] | 4.5 cm | Cat. 2 | – | EpiOcular prediction versus in vivo (RhCE tissues): false negatives
CCCCOc1ccc(OCCCC)cc1 [1,4-dibutoxy benzene] | 4.5 cm | Cat. 2 | – | EpiOcular prediction versus in vivo (RhCE tissues): false negatives
CC(=O)O[C@H]1NC(=O)[C@@H]1[C@@H](C)O[Si](C)(C)C(C)(C)C [(2R,3R)-3-((R)-1-(tert-Butyldimethylsiloxy)ethyl)-4-oxoazetidin-2-yl acetate] | 4.5 cm | Cat. 2 | – | BCOP prediction versus in vivo (bovine cornea; without DM test): false negatives
c1ccc2c(c1)CCc1ccccc1N2 [Iminodibenzyl] | 4.5 cm | – | Cat. 1 | EpiOcular prediction versus in vivo (RhCE tissues): false negatives
CCCCCCCCCCCCCCO [Myristyl alcohol] | 4.5 cm | – | Cat. 2 | Short Time Exposure (STE) prediction versus in vivo (cultured epithelium): false negatives
CCN(CC)CCCC(C)Nc1c2ccc(Cl)cc2nc2ccc(OC)cc12 (stereo not drawn) [Quinacrine] | 4.5 cm | – | Cat. 1 | BCOP prediction versus in vivo (bovine cornea; without DM test): false negatives
